How the values were obtained:
Assay type in all cases: in vivo, mouse
caspase-3 activity = assay: Caspase-3 activity, lentiviral α-Synuclein mice
Excerpt: To measure caspase-3 activity in the animal models, we used EnzChek® caspase-3 assay kit #1 (Invitrogen) on cortical extracts and Z-DEVD-AMC substrate and the […] was read according to manufacturer's protocol.

Aβ1-42 parkin−/− mice = assay: Novel object recognition, Aβ1-42 parkin−/− mice; conditions: Aβ1-42 parkin−/− mice with or without Nilotinib
Protocol: Mice were placed individually in a 22×32×30 cm testing chamber for a 5 min habituation interval and returned to their home cages. Thirty minutes later mice were placed in the testing chamber for 10 min with two identical objects (acquisition session), then returned to their home cages and […] placed back in the testing chamber in the presence with one of the original objects and one novel object of the same size but of a different color and shape (recognition session). Sessions were video recorded. Time spent exploring the objects were scored by blind observer. The recognition index was calculated as (time exploring one of the objects/time exploring both objects)×100 for acquisition session, and (time exploring new object/time exploring both familiar and novel objects)×100 for the recognition session. Statistical calculations to estimate differences between sessions were performed with a pairwise t-test.
(§1) These experiments were repeated in 1 year old Tg-APP mice and age-matched control (C57BL/6).

[1] = system: autophagic vacuoles and lysosomes; assay: Subcellular fractionation and ELISA, lentiviral Aβ1-42 mice
Protocol: Histograms show Aβ1-42 in subcellular fractions, including autophagic vacuole-10 (AV-10; phagophores+autophagosomes), AV-20 (autophagosomes) and lysosomes. […] Brain tissues were fractionated to isolate AVs and human specific ELISA was performed to determine protein contents. […] N=5 animals per treatment.
Brain tissues were fractionated to isolate AVs and human specific ELISA was performed to determine protein contents.
0.5 g of Frozen human or animal brains were homogenized at low speed (Cole-Palmer homogenizer, LabGen 7, 115 Vac) in 1×STEN buffer and centrifuged at 1,000 g for 10 minutes to isolate the supernatant from the pellet. The pellet was re-suspended in 1×STEN buffer and centrifuged once to increase the recovery of lysosomes. The pooled supernatants were then centrifuged at 100,000 rpm for 1 hour at 4° C. to extract the pellet containing autophagic vacuoles (AVs) and lysosomes. The pellet was then re-suspended in 10 ml (0.33 g/ml) 50% Metrizamide and 10 ml in cellulose nitrate tubes. A discontinuous Metrizamide gradient was constructed in layers from bottom to top as follows: 6 ml of pellet suspension, 10 ml of 26%; 5 ml of 24%; 5 ml of 20%; and 5 ml of 10% Metrizamide (Marzella et al., 1982). After centrifugation at 10,000 rpm for 1 hour at 4° C., the fraction floating on the 10% layer (Lysosome) and the fractions banding at the 24%/20% (AV 20) and the 20%/10% (AV10) Metrizamide inter-phases were collected by a syringe and examined.
Animal brains were homogenized at low speed (Cole-Palmer homogenizer, LabGen 7, 115 Vac) in 1×STEN buffer and centrifuged at 1,000 g for 10 minutes to isolate the supernatant from the pellet. The pellet was re-suspended in 1×STEN buffer and centrifuged once to increase the recovery of lysosomes. The pooled supernatants were then centrifuged at 100.000 rpm for 1 hour at […] to extract the pellet containing autophagic vacuoles (AVs) and lysosomes. The pellet was then re-suspended in 10 ml (0.33 g/ml) 50% Metrizamide and 10 ml in cellulose nitrate tubes. […]

[2] = system: Aβ1-42 plaques and intracellular Aβ1-42; assay: Plaque and intracellular Aβ1-42 staining, lentiviral Aβ1-42 wild type mice
Protocol: Immunohistochemistry was performed on 20 micron-thick 4% paraformaldehyde (PFA) fixed cortical brain sections. Aβ1-42 was probed (1:200) with rabbit polyclonal specific anti-Aβ1-42 antibody (Zymed) that recognizes a.a.1-42, and (1:200) mouse monoclonal antibody (4G8) that recognizes amino acid 17-24 (Covance) and counterstained with DAPI. Parkin was immunoprobed (1:200) with mouse anti-parkin (PRK8) antibody that recognizes amino acid 399-465 (Signet Labs, Dedham, Mass.) and rabbit polyclonal (1:200) anti-parkin (AB5112) antibody that recognizes amino acid 305-622 (Millipore) and counterstained with DAPI. Mouse monoclonal (6E10) antibody (1:100) with DAB were used (Covance) and thioflavin-S was performed according to manufacturer's instructions (Sigma).
Stereological methods were applied by a blinded investigator using unbiased stereology analysis (Stereologer, Systems Planning and Analysis, Chester, Md.) as described in (20,36).

[3] = system: mice injected with lentiviral α-synuclein into the substantia nigra; assay: Rotarod, lentiviral α-Synuclein mice
Excerpt: Mice were placed on an accelerating rotarod (Columbus Instruments) equipped with individual timers for each mouse. […] All values were converted to % control.

Tg-APP mice = assay: Morris water maze, Tg-APP mice
Protocol: All animals were pre-trained (trials) to swim for 90 seconds in a water maze containing a platform submerged in water (invisible) for 4 consecutive days once a day. The pretraining trials “teach” the swimming animals that to “escape”, they must find the hidden platform, and stay on it. The water maze “test” was performed on day 5, (40), when the platform was removed and mice have to swim and find it, thus assessing acquisition and retention. All parameters, including distance travelled to reach platform, speed to get to the platform, latency or time spent on platform, and platform entry were digitally recorded on a computer and analyzed by a blind investigator.
as §1

[4] = lentiviral Aβ1-42 mice, IP 10 mg/kg Nilotinib or 5 mg/Kg Bosutinib daily 3 weeks

SMILES: Cc1cn(-c2cc(NC(=O)c3ccc(C)c(Nc4nccc(-c5cccnc5)n4)c3)cc(C(F)(F)F)c2)cn1 [Nilotinib]
- caspase-3 activity, Nilotinib vs DMSO (caspase-3 activity; LacZ injected mice, daily IP 10 mg/kg): did not result in any difference
- caspase-3 activity (caspase-3 activity; lentiviral α-Synuclein mice, daily IP 10 mg/kg Nilotinib 3 weeks): 140 % of LacZ levels
- novel object recognition learning (Aβ1-42 parkin−/− mice): did not learn
- autophagic clearance of Aβ1-42 (deposition in AV-20 and lysosome) [1, 4]: enhances autophagic clearance
- autophagic clearance of p-Tau ser 396 (deposition in AV-20 and lysosome) [1, 4]: enhances autophagic clearance
- autophagic clearance of Aβ1-42 (deposition in AV-20 and lysosomes) ([1]; wild type or Tau−/− mice, lentiviral Aβ1-42, 10 mg/kg Nilotinib or 5 mg/Kg Bosutinib daily 3 weeks): enhances autophagic clearance
- plaque size ([2]; Aβ1-42 wild type mice + Nilotinib (DMSO around 48 μm)): 5 μm
- plaque formation ([2]; Aβ1-42 wild type mice, Nilotinib daily for 3 weeks): eliminates plaque formation
- Aβ1-42 positive cells (stereological counting) ([2]; Aβ1-42 wild type mice, Nilotinib treated): 5200 cells
- intracellular Aβ1-42 accumulation (cortex) ([2]; lentiviral Aβ1-42 injected mice, Nilotinib): eliminated Aβ1-42 accumulation
- rotarod motor performance ([3]; lentiviral α-Synuclein mice + Nilotinib (DMSO 39%)): 86 % of LacZ level
- motor performance (rotarod) ([3]; lentiviral α-synuclein mice, 10 mg/kg Nilotinib or 5 mg/Kg Bosutinib): improved motor performance
- time spent in SE (Tg-APP mice; 1 year old Tg-APP mice, 10 mg/kg daily for 3 weeks): reversed time spent in SE back to control level
- distance traveled above control levels (Tg-APP mice; Nilotinib treated Tg-APP mice): 30%
- entries into SE (platform entry) higher than control (Tg-APP mice; Tg-APP+Nilotinib): 30%

From US10709704B2, “Treating neural disease with tyrosine kinase inhibitors” (GEORGETOWN UNIVERSITY, priority 2012, dated 2020)
